Results on 14 compounds are retold here after patent US20230066011A1, “PYRROLOPYRIMIDINE DERIVATIVE, AND PHARMACEUTICAL COMPOSITION FOR PREVENTING OR TREATING PROTEIN KINASE-RELATED DISEASE COMPRISING SAME AS ACTIVE INGREDIENT” (VORONOI CO., LTD., priority 2019, published 2023).

pIC50: −log10 of the molar value.

One experiment has as its system MDA-MB-231 cell line. Kind of experiment: Inhibition of proliferation of MDA-MB-231 cancer cells (Cell Titer-Glo). The format is cell-based. Conditions: Homo sapiens, 72 hours. The method in brief: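 2,000 cells/well, DMEM or RPMI; 11-pt 3-fold dilution, final 10.000000–0.000169 μM; 72 h. CellTiter-Glo, 10 min RT, luminescence read; GI50 fitted.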
A general note: In ATP-based viability assays light output follows the ATP content of the culture.

The target in another experiment is T1, human GST-DYRK1A (Homo sapiens, UniProt Q13627).
T1 construct: purified human GST-DYRK1A (full length, Thermo Scientifics) enzyme; purchased Thermo Scientifics
Kind of experiment: GST-DYRK1A enzyme inhibition, ADP-Glo kinase assay. The format is biochemical. Conditions: ATP 10 μM, GST-DYRK1A full length, read-out: DYRK1 IC50. The method in brief: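 Full-length enzyme (10 ng) was incubated with 10 μM ATP and a specific substrate for 1 h at 25 °C in 40 mM Tris-HCl pH 7.4, 20 mM MgCl2, 0.5 mg/mL BSA, 50 μM DTT. Luminescence was read against a solvent control, and IC50 values were derived from 3 data sets.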

The target in a further experiment is T2, human GST-CLK1 (Homo sapiens, UniProt P49759).
T2 construct: purified human GST-CLK1 (129-end, SignalChem) enzyme; purchased SignalChem
T2 sequence (P49759 129-484 limits assumed): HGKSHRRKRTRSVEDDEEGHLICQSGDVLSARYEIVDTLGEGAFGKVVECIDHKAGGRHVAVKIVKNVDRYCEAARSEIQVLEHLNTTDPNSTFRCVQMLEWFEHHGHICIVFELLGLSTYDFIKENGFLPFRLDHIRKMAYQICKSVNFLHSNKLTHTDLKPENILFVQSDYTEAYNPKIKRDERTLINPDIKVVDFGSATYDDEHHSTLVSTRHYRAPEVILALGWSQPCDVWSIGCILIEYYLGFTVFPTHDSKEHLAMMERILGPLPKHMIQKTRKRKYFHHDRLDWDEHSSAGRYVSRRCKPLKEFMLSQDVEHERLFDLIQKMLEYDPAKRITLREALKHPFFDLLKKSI
Kind of experiment: GST-CLK1 enzyme inhibition, ADP-Glo kinase assay. It is filed as biochemical. Conditions: ATP 10 μM, GST-CLK1 129-end. The method in brief:
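ADP-Glo luminescence read-out, relative to untreated solvent control, gave IC50 (nM) from triplicate data sets. Reactions ran an hour at 25° C with 3 ng GST-CLK1 (residues 129-end), 10 μM ATP and specific substrate in Tris-HCl pH 7.4 buffer with MgCl2, BSA and DTT.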
(ADP-Glo turns the ADP formed in a reaction into a luminescent signal.)

The next experiment deals with LRRK2 (Homo sapiens, UniProt Q5S007). Kind of experiment: LRRK2 enzyme inhibition, ADP-Glo kinase assay. It is filed as biochemical. Conditions: ATP 10 μM. The arrangement: purchased Invitrogen PR8604B. The method in brief: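 ADP-Glo luminescent read-out of ADP formed by purified human LRRK2 enzyme (25 ng), 10 μM ATP, 0.2 μg substrate, 25° C for 2 h, Tris-HCl pH 7.4 buffer with MgCl2, BSA, DTT. Inhibition versus untreated solvent control over twelve final concentrations (50 μM downward) gives IC50.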
Chain of LRRK2 (Q5S007 970-2527 limits assumed): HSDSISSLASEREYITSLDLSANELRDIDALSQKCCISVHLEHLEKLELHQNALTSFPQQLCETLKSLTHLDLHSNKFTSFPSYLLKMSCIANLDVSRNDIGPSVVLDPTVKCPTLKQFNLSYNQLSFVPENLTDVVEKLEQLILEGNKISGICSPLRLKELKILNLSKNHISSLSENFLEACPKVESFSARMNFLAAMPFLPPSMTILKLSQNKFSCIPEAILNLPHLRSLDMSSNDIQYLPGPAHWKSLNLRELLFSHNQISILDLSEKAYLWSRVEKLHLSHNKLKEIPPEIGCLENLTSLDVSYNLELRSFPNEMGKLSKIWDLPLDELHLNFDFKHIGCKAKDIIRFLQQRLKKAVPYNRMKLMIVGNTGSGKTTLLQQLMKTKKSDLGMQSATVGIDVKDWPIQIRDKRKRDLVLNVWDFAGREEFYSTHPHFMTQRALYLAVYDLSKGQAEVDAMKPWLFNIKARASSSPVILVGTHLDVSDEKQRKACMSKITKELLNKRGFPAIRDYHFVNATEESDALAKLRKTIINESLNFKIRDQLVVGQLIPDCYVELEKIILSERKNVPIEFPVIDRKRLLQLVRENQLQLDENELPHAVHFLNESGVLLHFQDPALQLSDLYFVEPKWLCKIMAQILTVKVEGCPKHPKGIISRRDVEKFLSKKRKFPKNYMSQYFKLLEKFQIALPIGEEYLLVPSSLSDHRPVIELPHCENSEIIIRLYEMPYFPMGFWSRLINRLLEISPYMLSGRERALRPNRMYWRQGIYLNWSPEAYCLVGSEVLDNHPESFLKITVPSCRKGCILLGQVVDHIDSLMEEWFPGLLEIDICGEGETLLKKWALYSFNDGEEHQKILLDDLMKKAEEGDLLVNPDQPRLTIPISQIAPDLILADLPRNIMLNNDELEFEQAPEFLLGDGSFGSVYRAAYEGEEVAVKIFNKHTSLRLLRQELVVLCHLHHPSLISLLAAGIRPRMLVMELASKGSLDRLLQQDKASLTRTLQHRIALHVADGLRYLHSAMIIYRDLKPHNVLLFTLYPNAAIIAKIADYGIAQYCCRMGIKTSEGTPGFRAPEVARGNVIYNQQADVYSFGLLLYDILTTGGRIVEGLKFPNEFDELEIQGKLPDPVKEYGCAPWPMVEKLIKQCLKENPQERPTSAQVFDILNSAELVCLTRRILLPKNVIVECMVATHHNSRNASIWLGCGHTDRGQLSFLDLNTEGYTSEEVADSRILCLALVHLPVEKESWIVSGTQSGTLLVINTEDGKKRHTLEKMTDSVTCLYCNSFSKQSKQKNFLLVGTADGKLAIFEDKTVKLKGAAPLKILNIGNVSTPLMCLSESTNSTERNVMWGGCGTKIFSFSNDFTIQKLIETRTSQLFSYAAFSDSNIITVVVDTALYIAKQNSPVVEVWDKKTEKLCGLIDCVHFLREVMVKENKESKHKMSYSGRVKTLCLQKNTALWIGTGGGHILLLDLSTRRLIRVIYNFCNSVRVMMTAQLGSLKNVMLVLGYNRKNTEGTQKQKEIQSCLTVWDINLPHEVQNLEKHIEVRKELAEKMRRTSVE

The test system of the next experiment is SHP-77. Kind of experiment: Inhibition of proliferation of SHP-77 cancer cells (Cell Titer-Glo). It is filed as cell-based. Conditions: Homo sapiens, SHP77, 72 hours. The method, then: To evaluate an inhibitory effect on the proliferation of cancer cells, each of an MDA-MB-231 cell line (Korean Cell Line Bank #30026) and an MDA-MB-468 cell line as triple-negative breast cancer cell lines, and SHP-77 (ATCC #CRL-2195) as a small-cell lung cancer cell line was cultured in DMEM (HyClone #SH30243) or an RPMI medium (HyClone #SH3027.01) to analyze a cell growth rate. More specifically, a cell line was plated on a 96-well flat bottom plate (Corning #3903) at a density of 2,000 cells/100 μL per well, and then treated with 11 concentrations of the Example compound, a solution of which was diluted 3-fold so that a final concentration of the compound was 10.000000, 3.333333, 1.111111, 0.370370, 0.123457, 0.041152, 0.013717, 0.004572, 0.001524, 0.000508, and 0.000169 μM. After 72 hours, each of the culture media was treated with 100 μL of Cell Titer-Glo (Promega G7573), and then cultured at room temperature for 10 minutes. Then, a degree of luminescence was measured using a microplate reader. A GI50 value was calculated from the measured degree of luminescence using Prism (Version 8.2 GraphPad) software.

The next experiment concerns the target LRRK2 (G2019S) (Homo sapiens, UniProt Q5S007, G2019S). Kind of experiment: LRRK2 G2019S enzyme inhibition, ADP-Glo kinase assay. The format is biochemical. The arrangement: purchased SignalChem L10-12GG. The note with it: ATP 25 μM. The method in brief: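 IC50 derived from luminescent ADP-Glo readout against untreated solvent control, twelve final compound concentrations from 50 μM downward. Reaction: recombinant human LRRK2 G2019S enzyme, 25 μM ATP, substrate, pH 7.4 Tris buffer with MgCl2/BSA/DTT, 25° C. for 2 hours.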

A word on the GI50: it is the concentration that inhibits growth by half. A lower GI50 goes with greater sensitivity of the cells. As usually defined, the pIC50 is −log10 of the IC50, conventionally taken in molar units.

Chain of LRRK2 (G2019S) (Q5S007 970-2527 G2019S limits assumed): as the sequence (Q5S007 970-2527 limits assumed) above, with G1050S counted along it

Take `COc1cc(S(=O)(=O)N2CCC(N3CCOCC3)CC2)ccc1Nc1nc(NC2CCCC2)c2c(C(F)(F)F)c[nH]c2n1` [Example 187, N^4-cyclopentyl-N^2-(2-methoxy-4-((4-morpholinopiperidin-1-yl)sulfonyl)phenyl)-5-(trifluoromethyl)-7H-pyrrolo[2,3-d]pyrimidine-2,4-diamine]: the GI50 with MDA-MB-231 cell line and in the experiment with SHP-77 was 301 to 1000 nM throughout. Moreover, the pIC50 on human GST-DYRK1A was 6.00 to 6.52; against human GST-CLK1, 6.00 to 6.52; on LRRK2, above 7.00.

On to `CCCCNc1nc(Nc2ccc(S(=O)(=O)N3CCC(N4CCOCC4)CC3)cc2OC)nc2[nH]cc(C#N)c12` [Example 97, 4-(butylamino)-2-((2-methoxy-4-((4-morpholinopiperidin-1-yl)sulfonyl)phenyl)amino)-7H-pyrrolo[2,3-d]pyrimidine-5-carbonitrile], for which the GI50 in the experiment with MDA-MB-231 cell line and in the experiment on SHP-77 was below 50 nM each time. Besides, the pIC50 is 6.00 to 6.52 on human GST-DYRK1A, above 7.00 on LRRK2 (G2019S), 6.00 to 6.52 on human GST-CLK1 and above 7.00 at LRRK2.

On to `COc1cc(S(=O)(=O)N2CCOCC2)ccc1Nc1nc(NC2CCC2)c2c(C#N)c[nH]c2n1` [Example 71, 4-(cyclobutylamino)-2-((2-methoxy-4-(morpholinosulfonyl)phenyl)amino)-7H-pyrrolo[2,3-d]pyrimidine-5-carbonitrile], for which the GI50 in the experiment on MDA-MB-231 cell line is 101 to 300 nM; with SHP-77, 51 to 100 nM. For the same compound, the pIC50 is 6.00 to 6.52 on human GST-DYRK1A, above 7.00 at LRRK2 (G2019S), 6.00 to 6.52 against human GST-CLK1 and above 7.00 against LRRK2.

As for `COc1cc(S(=O)(=O)N2CCC(N3CCOCC3)CC2)ccc1Nc1nc(NCC2CCC2)c2c(C(F)(F)F)c[nH]c2n1` [Example 197, N^4-(cyclobutylmethyl)-N^2-(2-methoxy-4-((4-morpholinopiperidin-1-yl)sulfonyl)phenyl)-5-(trifluoromethyl)-7H-pyrrolo[2,3-d]pyrimidine-2,4-diamine], the GI50 with MDA-MB-231 cell line and in the experiment with SHP-77 was 301 to 1000 nM each time. The pIC50 at human GST-DYRK1A is 6.00 to 6.52; at LRRK2 (G2019S) it was 6.52 to 7.00; on human GST-CLK1 it was 6.00 to 6.52; on LRRK2, above 7.00.

As for `CCCNc1nc(Nc2ccc(S(=O)(=O)N3CCOCC3)cc2OC)nc2[nH]cc(C#N)c12` [Example 64, 2-((2-methoxy-4-(morpholinosulfonyl)phenyl)amino)-4-(propylamino)-7H-pyrrolo[2,3-d]pyrimidine-5-carbonitrile], the GI50 in the experiment with MDA-MB-231 cell line and with SHP-77 was below 50 nM throughout. The pIC50 was 6.00 to 6.52 on human GST-DYRK1A, above 7.00 on LRRK2 (G2019S), 6.00 to 6.52 at human GST-CLK1 and above 7.00 at LRRK2.

For the compound `CCNc1nc(Nc2ccc(S(=O)(=O)N3CCOCC3)cc2OC)nc2[nH]cc(C#N)c12` [Example 63, 4-(ethylamino)-2-((2-methoxy-4-(morpholinosulfonyl)phenyl)amino)-7H-pyrrolo[2,3-d]pyrimidine-5-carbonitrile], the GI50 in the experiment on MDA-MB-231 cell line and with SHP-77 was 301 to 1000 nM in each case. Moreover, the pIC50 at human GST-DYRK1A is 6.00 to 6.52; on LRRK2 (G2019S) it was above 7.00; against human GST-CLK1, 6.00 to 6.52; on LRRK2, above 7.00.

For the compound `COc1cc(S(=O)(=O)N2CCOCC2)ccc1Nc1nc(NC2CCCC2)c2c(C#N)c[nH]c2n1` [Example 72, 4-(cyclopentylamino)-2-((2-methoxy-4-(morpholinosulfonyl)phenyl)amino)-7H-pyrrolo[2,3-d]pyrimidine-5-carbonitrile], the GI50 with MDA-MB-231 cell line and with SHP-77 was below 50 nM throughout. For the same compound, the pIC50 on human GST-DYRK1A, against LRRK2 (G2019S), at human GST-CLK1 and on LRRK2 was 6.00 to 6.52 in each case.

For the compound `COCCNc1nc(Nc2ccc(S(=O)(=O)N3CCOCC3)cc2OC)nc2[nH]cc(C#N)c12` [Example 69, 2-((2-methoxy-4-(morpholinosulfonyl)phenyl)amino)-4-((2-methoxyethyl)amino)-7H-pyrrolo[2,3-d]pyrimidine-5-carbonitrile], the GI50 in the experiment with MDA-MB-231 cell line and in the experiment with SHP-77 was 301 to 1000 nM each time. Also, the pIC50 at human GST-DYRK1A is 6.00 to 6.52; against LRRK2 (G2019S) it was above 7.00; at human GST-CLK1 it was 6.00 to 6.52; on LRRK2 it was above 7.00.

For `COc1cc(S(=O)(=O)N2CCC(N3CCOCC3)CC2)ccc1Nc1nc(NC2CCC2)c2c(C#N)c[nH]c2n1` [Example 89, 4-(cyclobutylamino)-2-((2-methoxy-4-((4-morpholinopiperidin-1-yl)sulfonyl)phenyl)amino)-7H-pyrrolo[2,3-d]pyrimidine-5-carbonitrile], the GI50 is below 50 nM in the experiment on MDA-MB-231 cell line and 51 to 100 nM with SHP-77. In addition, the pIC50 on human GST-DYRK1A is 6.00 to 6.52; against LRRK2 (G2019S), above 7.00; against human GST-CLK1 it was 6.52 to 7.00; at LRRK2, above 7.00.

On to `COCCNc1nc(Nc2ccc(S(=O)(=O)N3CCC(N4CCOCC4)CC3)cc2OC)nc2[nH]cc(C(F)(F)F)c12` [Example 170, N^2-(2-methoxy-4-((4-morpholinopiperidin-1-yl)sulfonyl)phenyl)-N^4-(2-methoxyethyl)-5-(trifluoromethyl)-7H-pyrrolo[2,3-d]pyrimidine-2,4-diamine], for which the GI50 was in the range of 301 to 1000 nM in the experiment on MDA-MB-231 cell line and 101 to 300 nM in the experiment with SHP-77. Besides, the pIC50 on human GST-DYRK1A is 6.52 to 7.00; on LRRK2 (G2019S) it was above 7.00; on human GST-CLK1 it was above 7.00; against LRRK2 it was above 7.00.

`COc1cc(S(=O)(=O)N2CCC(N3CCOCC3)CC2)ccc1Nc1nc(NCC2CC2)c2c(C#N)c[nH]c2n1` [Example 92, 4-((cyclopropylmethyl)amino)-2-((2-methoxy-4-((4-morpholinopiperidin-1-yl)sulfonyl)phenyl)amino)-7H-pyrrolo[2,3-d]pyrimidine-5-carbonitrile]: the GI50 in the experiment on MDA-MB-231 cell line and in the experiment with SHP-77 was below 50 nM each time. Besides, the pIC50 at human GST-DYRK1A was 6.00 to 6.52; against human GST-CLK1 it was 6.00 to 6.52; against LRRK2 it was above 7.00.

Turning to `COCC(C)(C)Nc1nc(Nc2ccc(S(=O)(=O)N3CCOCC3)cc2OC)nc2[nH]cc(C#N)c12` [Example 78, 4-((1-methoxy-2-methylpropan-2-yl)amino)-2-((2-methoxy-4-(morpholinosulfonyl)phenyl)amino)-7H-pyrrolo[2,3-d]pyrimidine-5-carbonitrile], the GI50 with MDA-MB-231 cell line and in the experiment on SHP-77 was below 50 nM each time. Also, the pIC50 at human GST-DYRK1A is 6.00 to 6.52; at human GST-CLK1, 6.00 to 6.52; on LRRK2, above 7.00.

In the case of `COCC(C)(C)Nc1nc(Nc2ccc(S(=O)(=O)N3CCC(N4CCOCC4)CC3)cc2OC)nc2[nH]cc(C#N)c12` [Example 93, 4-((1-methoxy-2-methylpropan-2-yl)amino)-2-((2-methoxy-4-((4-morpholinopiperidin-1-yl)sulfonyl)phenyl)amino)-7H-pyrrolo[2,3-d]pyrimidine-5-carbonitrile], the GI50 in the experiment with MDA-MB-231 cell line and in the experiment with SHP-77 was below 50 nM in each case. For the same compound, the pIC50 was 6.00 to 6.52 at human GST-DYRK1A, 6.52 to 7.00 against human GST-CLK1 and above 7.00 on LRRK2.

With `COc1cc(S(=O)(=O)N2CCOCC2)ccc1Nc1nc(NC2CCCC2)c2c(C(F)(F)F)c[nH]c2n1` [Example 186, N^4-cyclopentyl-N^2-(2-methoxy-4-(morpholinosulfonyl)phenyl)-5-(trifluoromethyl)-7H-pyrrolo[2,3-d]pyrimidine-2,4-diamine], the GI50 with MDA-MB-231 cell line and in the experiment with SHP-77 was 301 to 1000 nM each time. Further, the pIC50 at human GST-DYRK1A was 6.00 to 6.52; against human GST-CLK1 it was 6.00 to 6.52; on LRRK2, 6.52 to 7.00.
